Experiments:
bacteria = assay: antimicrobial / antibacterial effectiveness of glycopyrrolate alone and as enhancer; format: cell-based
Text: Although this incorporation alone is not sufficient to destroy the bacteria, this makes them more susceptible to attack by antibacterial substances (deodorizing/antiperspirant agents) which can pass through or even destroy the membrane due to the impaired membrane integrity.

[1] = compared with scopolamine, cited from earlier work

Which results are given for `C[N+]1(C)CC[C@@H](OC(=O)[C@@](O)(c2ccccc2)C2CCCC2)C1` (relative stereo) [Glycopyrrolate, (±)-(R*)-3-[(S*)-(cyclopentyl hydroxyphenylacetoxy]-1,1-dimethylpyrrolidiniumbromide]?
antimicrobial effectiveness (bacteria; glycopyrrolate alone): no or only slight antimicrobial effectiveness; antibacterial effect (bacteria; glycopyrrolate alone in the formulations used): does not show any antibacterial effect; penetration of biological membranes [1]: penetrates biological membranes more slowly; side effects ([1]; topical): fewer side effects than scopolamine

— patent US8343467B2 (Beiersdorf AG, priority 2004, dated 2013)
